# Measurements from patent publication US20170022258A1, “PEPTIDES FOR USE IN THE TREATMENT OF IL-1 RELATED DISEASES AND CONDITIONS” (C4M PHARMACEUTICALS PTY LTD., priority 2011, published 2017).
# Non-standard residues stand in square brackets, D forms with d. Residues, ends and D or L forms follow the SMILES beside them.
# Assays:
# [1] = test system: IL-1α-induced IL-8 production by HT-29 cells; test: IL-1α induced IL-8 production by HT-29 colonic epithelial cells; assay type: cell-based, human; settings: 10 ng/ml IL-1α
# Description: (§1) Human colon epithelial cell lines HT-29 and Caco2 obtained from the European Collection of Animal Cell Cultures (ECACC) were used in cell cultures. Cells were routinely cultured at 37° C. in an atmosphere of 5% CO2 in 80 cm^2 tissue culture flasks in McCoy's and DMEM medium, respectively, supplemented with penicillin (10 u/ml), streptomycin (10 μg/ml), fungizone (0.5 μg/ml), and 10% (v/v) FCS (referred to as complete medium) until confluent.
# (§2) Confluent monolayers were sub-cultured into 6-well plates for experimental protocols. Cells were grown in 6-well plates until confluent. Twenty-four hours prior to the experiment the confluent monolayers were washed and cultured in FCS-free McCoy's medium. Growth arrested cultures were then treated with fresh FCS-free medium and stimulated with vehicle controls or various doses of IL-1α added alone or in combination with other pro-inflammatory cytokines (TNF-α, IFN-γ) in the presence or absence of the peptide of sequence 4 or IL-1 ra, in a dose and time dependent manner.
# (§3) Supernatants were collected, centrifuged to remove cellular debris and stored at −70° C. until assayed for extracellular inflammatory mediators. Total RNA for RT-PCR was extracted as described above. Cell counting and viability was routinely checked at the beginning and the end of the experiment by phase microscopy and by trypan blue exclusion using representative wells. Mycoplasma tests were performed during the experimental protocol. Production of soluble mediators was assessed by commercially available ELISA in supernatants, RT-PCR in total RNA extractants and nitric oxide, as described in Kolios, G, et al. (1995). Br J Pharmacol, 116, 2866-2872, the contents of which are incorporated herein by reference.
# HT 29 and Caco2 colonic epithelial cell lines were stimulated with 10 ng/ml of IL-la in the presence of 100 or 500 ng/ml of the peptide of sequence 4.
# [2] = test system: IL-1α+IFN-γ induced IL-8 production by HT-29 cells; test: IL-1α+IFN-γ induced IL-8 production by HT-29 cells; assay type: cell-based, human
# Description: as §1, §2, §3
# Stimulation of HT-29 cells with a combination of pro-inflammatory cytokines induces increased secretion of chemokines, including IL-8 (as described in Kolios, G, et al. (1999). Eur J Immunol, 29, 530-536 the contents of which are herein incorporated by reference). […]
# [3] = test system: IL-1α+IFN-γ induced IL-17 production by HT-29 cells; test: IL-1α+IFN-γ induced IL-17 production by HT-29 cells; assay type: cell-based, human; settings: 10 ng/ml IL-1α+300 U IFN-γ, peptide 10 ng/ml and 500 ng/ml, stimulated control 13.14±3.92, n=6, p<0.001
# Description: as §1, §2
# Supernatants were collected, centrifuged to remove cellular debris and stored at −70° C. until assayed for extracellular inflammatory mediators. […] Production of soluble mediators was assessed by commercially available ELISA in supernatants, RT-PCR in total RNA extractants and nitric oxide, as described in Kolios, G, et al. (1995). […]
# [4] = Stability of peptide once dissolved in solution (1 month); assay type: physicochemical; settings: 1 mg in 5 ml water, bicarbonate and benzyl alcohol (19, 4) or methanol (13, 14)
# Description: Each of the peptides having the sequences 13, 14, 19 and 4 were tested to determine their stability in a solution containing (preferred composition above) water, bicarbonate and either benzyl alcohol (peptide 19 and 4) or methanol (peptide 13 and 14). Each of the peptides were held for a period of 1 month at either 4° C. or at room temperature.
# 1 mg of each peptide was added to the water, bicarbonate and either benzyl alcohol or methanol solution and the solution was gently agitated for 1 hour at room temperature before standing at either 4° C. or at room temperature for a period of 1 month.
# [5] = Human plasma stability trials; assay type: in vitro ADME; settings: 37° C., 12 hours, read-out: ½ Life human plasma
# Description: 1 mg of each peptide was added to the plasma and the solution was gently agitated for 2 minutes at room temperature before standing at 37° C. for a period of 12 hours.
# [6] = test system: human subjects; test: Testing of peptide 4 in human subjects for treatment of different diseases and conditions; assay type: in vivo; settings: 1 mg; for Duration: Single
# Description: The peptide having the sequence 4 was tested to determine its effect on a range of different diseases in humans, horses and cows.
# (§4) The peptides were prepared as compositions containing 1 mg of peptide dissolved in 5 ml of a solution comprising water, bicarbonate and either benzyl alcohol or methanol.
# [7] = test system: horses; test: Testing of peptide 4 in horses for treatment of osteoarthritis and equine laminitis; assay type: in vivo, horse; settings: 1 mg
# Description: The peptides were prepared as compositions containing 1 mg of peptide dissolved in 5 ml of solution, comprising water, bicarbonate and either benzyl alcohol or methanol.
# [8] = test system: cows; test: Testing of peptide 4 in cows for treatment of mastitis; assay type: in vivo, cow; settings: 1 mg, IV
# Description: as §4
# [9] = test system: horses; test: Equine case studies (inflammatory conditions); assay type: in vivo, horse
# Description: In these case studies, 13 different horses each suffering from different inflammatory conditions were treated with peptide 4, which was administered by injection in a composition containing the peptide dissolved in 5 ml of a solution comprising water, bicarbonate and either benzyl alcohol or methanol.
structure (smiles),measurement,setting,value
"CC(=O)N[C@H](CC(C)C)C(=O)N1CCC[C@@H]1C(=O)N[C@H](CC(C)C)C(=O)N[C@H](C)C(=O)N[C@H](Cc1ccc(O)cc1)C(=O)N1CCC[C@@H]1C(=O)N[C@H](CCC(N)=O)C(=O)N[C@H](Cc1c[nH]c2ccccc12)C(=O)N[C@H](Cc1ccc(O)cc1)C(=O)NCC(=O)N1CCC[C@@H]1C(=O)N[C@@H](C(=O)N[C@H](Cc1c[nH]c2ccccc12)C(=O)N[C@H](CCC(=O)O)C(=O)N[C@H](Cc1ccccc1)C(=O)O)[C@H](C)O [SEQ ID NO. 4, Ac-LPLAYPQWYGPTWEF] (Ac-[dL][dP][dL][dA][dY][dP][dQ][dW][dY]G[dP][dT][dW][dE][dF]-OH; C-terminus assumed)",IL-1α-induced IL-8 production,"[1]; peptide 500 ng/ml, IL-1α alone 67.455±0.125, n=6, p<0.01",40.705±2.56 ng/ml per 106 cells
same,Effect on IL-1α-induced IL-8 production,"[1]; peptide 100 or 500 ng/ml, FIG. 1",reduced IL-1α-induced IL-8 production in a concentration dependent manner
same,IL-1α+IFN-γ induced IL-8 production,"[2]; 10 ng/ml IL-1α+300 U IFN-γ, peptide 5 ng/ml, stimulated control 78.79±6.99, n=3",35.41±4.23 ng/ml per 106 cells
same,Effect on IL-1α+IFN-γ induced IL-8 production,"[2]; all concentrations used, 5 ng/ml-1 μg/ml, p<0.01, FIG. 3",inhibitory effect for all concentrations used
same,IL-1α+IFN-γ-induced IL-17 production,[3],4.97±0.84 pg/ml per 106 cells
same,"Stability of peptide once dissolved in solution (at 1 month), 4° C. (month)",[4]; 4° C.,100%
same,"Stability of peptide once dissolved in solution (at 1 month), Room Temp (month)",[4]; room temperature,96%
same,half-life,[5],18.1 h
same,Effect,"[6]; Cancer Pain from Adrenal Cancer, IM, Repeated",Moderate
same,Effect,"[6]; Cancer Pain from Bone Metasta, IM, Repeated",Pronounced
same,Effect,"[6]; Cancer Pain from Lung Cancer, SC, Repeated",Pronounced
same,Effect,"[6]; Dermatitis, SC",Pronounced
same,Duration,"[6]; Dermatitis, SC",Single 96 hrs
same,Effect,"[6]; Emphysema, SC",Moderate
same,Duration,"[6]; Emphysema, SC",Single 48 hrs
same,Effect,"[6]; Lymphodema, IM",Pronounced
same,Duration,"[6]; Lymphodema, IM",Single 96 hrs
same,Effect,"[6]; Osteoarthritis, Joint",Mild
same,Duration,"[6]; Osteoarthritis, Joint",Single 48 hrs
same,Duration,"[6]; T1 Diabetes, IM",Single 96 hrs
same,Effect,"[6]; Tonsilitis, oral",Pronounced
same,Duration,"[6]; Tonsilitis, oral",Single 48 hrs
same,Duration,"[7]; Laminitis, IV",72 h
same,Effect,"[7]; Laminitis, IV",Pronounced
same,Duration,"[7]; OA, Joint",48 h
same,Effect,"[7]; OA, Joint",Moderate
same,Duration,[8],72 h
same,Effect,[8],Pronounced
same,Period without inflammation post-administration,[9]; Case 1,observed for 48 hours
same,Period of minimal pain and no heat post-administration,[9]; Case 2,48 hours post-
same,Observations,"[9]; Case 2: severe pain and heat in near fore hoof, 1 mg bolus intravenous",Minimal pain and no
same,Observations,"[9]; Case 3: years of mild laminitis, 1 mg bolus intravenous every 3rd day for three weeks, during period of treatment",Complete relief of all
same,Time post-administration at which symptoms returned,[9]; Case 4,after 8 days. 10 days
same,Observations,"[9]; Case 4: near fore fetlock heat and pain, fluid build up in lower deep flexor tendon, 1 mg bolus intravenous, after 8 days",Fetlock completely
same,Period with no pain or palpation,[9]; Case 5,observed for 14 days.
same,Period of complete pain relief and increased flexion,[9]; Case 6,observed for 6 days.
same,Observations,"[9]; Case 6: four years of general knee joint pain, sodium hyaluranate (Synvisc) intra-articularly followed by 0.5 mg peptide 4",Complete pain relief
same,Observations,"[9]; Case 7: three years of general knee pain, sodium hyaluranate (Synvisc) intra-articularly followed by 0.5 mg peptide 4, no follow up treatment required",Complete pain relief
same,Period of pronounced relief of symptoms,[9]; Case 8,over a 72 hour period.
same,Observations,"[9]; Case 9: severe muscle/ligament tear between shoulder and rib cage, 1 mg bolus intravenous, within 24 hours",Symptoms reduced
same,Observations,"[9]; Case 10: chronic joint pain in both knees and fetlocks, sodium hyaluranate (Synvisc) intra-articularly followed by 0.5 mg peptide 4, within 24 hours post-treatment","Significant pain relief,"
same,Observations,"[9]; Case 11: mild work-related shin soreness, 1 mg bolus intravenous every 3rd day for a week, after the second injection",Significant improvement
same,Observations,"[9]; Case 12: mild work-related shin soreness, 1 mg bolus intravenous, after 24 hours post-administration",Significant pain relief
same,Observations,"[9]; Case 13: severe pain from inflammation and fluid build-up at 18 month old tendon injury, 1 mg weekly bolus intravenous","Complete relief of pain,"
